In patent US20020055462A1, “Use” (priority 1999, published 2002):
“Also recorded” adds a separate entry of the source.

Key:
[1] = test system: PGE2 stimulated aromatase activity; test: PGE2 stimulated aromatase activity in breast fibroblasts; type: cell-based, human; conditions: for inhibition of stimulation of aromatase activity by PGE2 (in words): breast fibroblasts; for inhibition of PGE2 (10 μM) stimulated aromatase activity, significance: compound 10 μM, p<0.001
Protocol: (§1) The experimental protocol used was as described in the legend to FIG. 1.
(§2) Fibroblasts were cultured as previously described (2). Briefly, they were cultured in Eagles' modified minimal essential medium containing Hepes buffer (20 mmol/l), 10% foetal calf serum (FCS) and supplements. Cells were routinely passaged 2-3 times after which replicate 25 cm^2 flasks were seeded with fibroblasts and grown to confluency.
(§3) At the end of the treatment period aromatase activity was measured in intact monolayers using [1β-^3H] androstenedione (15-30 Ci/mmol, NEN-Du Pont, Stevenage, Herts, UK) over a 3-20 h period (2, 3). The number of cells was measured by counting cell nuclei using a Coulter counter. Experiments were carried out in triplicate and results shown are representative of 2-3 investigations.

[2] = test system: TNFα stimulated aromatase activity; test: TNFα-stimulated aromatase activity in cultured breast tissue fibroblasts; type: cell-based, human; conditions: for inhibition of TNFα-stimulated aromatase activity (in words): stromal fibroblasts from normal or malignant breast tissue; for inhibition of TNFα (20 ng/ml) stimulated aromatase activity, significance: compound 10 μM, p<0.001; for inhibition of TNFα-stimulated aromatase activity: fibroblasts derived from reduction mammoplasty tissue, 24 h pre-treatment, then TNFα plus dexamethasone for 48 h
Protocol: (§4) Inhibition of basal and TNFα-stimulated aromatase activity by paclitaxel (Pax) in breast tissue fibroblasts. Paclitaxel was added to cells which were cultured for 24 h in 2% stripped foetal calf serum. TNFα was added, in the presence of dexamethasone (100 nmol/l) and cells cultured for a further 48 h in the same medium. Controls and cells with paclitaxel, but not TNFα, were also cultured in the presence of dexamethasone for a 48 h period. Aromatase activity was measured in intact monolayers after washing cells with phosphate buffered saline. (means±SD, n=3; a, p<0.001 versus controls; b, p<0.001 versus TNFα-stimulated aromatase activity).
(§5) Samples of breast adipose or tumour tissue were obtained from women undergoing reduction mammoplasty or lumpectomy after obtaining their informed consent.
as §2, §3

[3] = test system: aromatase; test: Basal aromatase activity in intact monolayers of cultured breast tissue fibroblasts; type: cell-based, human; conditions: for inhibition of basal aromatase activity (in words): stromal fibroblasts from normal or malignant breast tissue; for inhibition of basal aromatase activity: fibroblasts derived from reduction mammoplasty tissue, 24 h pre-treatment then 48 h with dexamethasone 100 nmol/l
Protocol: as §4, §5, §2, §3

[4] = test system: IL-6 plus IL-6sR stimulated aromatase activity; test: IL-6 plus IL-6sR stimulated aromatase activity in breast fibroblasts; type: cell-based, human; conditions: for inhibition of stimulation of aromatase activity by IL-6 plus its soluble receptor (in words): breast fibroblasts; for inhibition of IL-6 plus IL-6sR (50 ng+100 ng/ml) stimulated aromatase activity, significance: compound 10 μM, p<0.001
Protocol: as §1, §2, §3

[5] = test system: MDA-MB-435 breast cancer cells; conditions: oral administration, mice; cited from earlier work
[6] = test system: B16 melanoma; conditions: oral administration, mice; cited from earlier work
[7] = test system: Meth A sarcoma; conditions: oral administration, mice; cited from earlier work
[8] = test system: TNFα stimulated aromatase activity; conditions: high concentrations, 10-100 μM; cited from earlier work
[9] = test system: TNFα receptors; conditions: human macrophages; cited from earlier work

## COc1cc2c(cc1OS(N)(=O)=O)CCC1C2CC[C@]2(C)C(=O)CCC12 (stereo partly drawn) [2-MeOEMATE, 2-methoxyoestrone-3-O-sulphamate]
[1]
  inhibition of stimulation of aromatase activity by PGE2 (in words): antagonise; also recorded: inhibited
[2]
  inhibition of TNFα-stimulated aromatase activity (in words): inhibited; also recorded: reduced
[3]
  inhibition of basal aromatase activity (in words): inhibited; also recorded: reduced
[4]
  inhibition of stimulation of aromatase activity by IL-6 plus its soluble receptor (in words): antagonise; also recorded: inhibited

## COc1cc2c(cc1O)CC[C@@H]1[C@@H]2CC[C@]2(C)[C@@H](O)CC[C@@H]12 [2-meOE2, 2-methoxyoestradiol]
[1]
  inhibition of stimulation of aromatase activity by PGE2 (in words): antagonise; also recorded: inhibited
  inhibition of PGE2 (10 μM) stimulated aromatase activity, significance: significant
[5]
  tumour growth: significantly reduced
[2]
  inhibition of TNFα (20 ng/ml) stimulated aromatase activity, significance: significant
  inhibition of TNFα-stimulated aromatase activity: 56%
  inhibition of TNFα-stimulated aromatase activity (in words): inhibited
[2]; compound at 0.1 μM
  inhibition of TNFα stimulation of aromatase activity, dose-response study: 51%
[2]; listed as 2-methoxyoestradiol
  inhibition of TNFα-stimulated aromatase activity (in words): significantly inhibited
[6]
  tumour growth: significantly reduced
[3]
  inhibition of basal aromatase activity: 46%
  inhibition of basal aromatase activity (in words): inhibited
[4]
  inhibition of IL-6 plus IL-6sR (50 ng+100 ng/ml) stimulated aromatase activity, significance: significant
[7]
  tumour growth: significantly reduced

## COc1cc2c(cc1O)CC[C@@H]1[C@@H]2CC[C@]2(C)[C@@H](O)[C@H](O)C[C@@H]12 [2-meOE3, 2-methoxyoestriol]
[2]; compound at 5 μM
  inhibition of TNFα stimulation of aromatase activity at 5 μM (in words): did not significantly reduce
[2]; highest concentration tested
  inhibition of TNFα stimulation of aromatase activity at highest concentration tested (in words): some inhibitory effect
[2]
  inhibition of TNFα-stimulated aromatase activity (in words): less effective
[2]; listed as 16α-hydroxy derivative of 2-meOE2
  inhibition of TNFα-stimulated aromatase activity (in words): limited ability to suppress

## COc1cc2c(c(OC)c1OC)-c1ccc(OC)c(=O)cc1[C@@H](NC(C)=O)CC2 [Colchicine]
[2]
  inhibition of TNFα-stimulated aromatase activity (in words): without effect
[2]; listed as colchicine
  inhibition of TNFα-stimulated aromatase activity (in words): unable to inhibit

## C=C1[C@@H](C)[C@H]2[C@H](Cc3ccccc3)NC(=O)[C@]23OC(=O)/C=C/[C@H](O)CCC[C@@H](C)C/C=C/[C@H]3[C@@H]1O [Cytocholasin B]
[2]
  inhibition of TNFα-stimulated aromatase activity (in words): without effect
[2]; listed as cytocholasin B
  inhibition of TNFα-stimulated aromatase activity (in words): unable to inhibit

## C[C@]12CC[C@@H]3c4ccc(O)cc4CC[C@H]3[C@@H]1CC[C@@H]2O [oestradiol]
[8]
  inhibition of TNFα stimulated aromatase activity in adipose stromal cells: can inhibit

## CC(=O)O[C@H]1C(=O)[C@@]2(C)[C@H]([C@H](OC(=O)c3ccccc3)[C@]3(O)C[C@H](OC(=O)[C@H](O)[C@@H](NC(=O)c4ccccc4)c4ccccc4)C(C)=C1C3(C)C)[C@]1(OC(C)=O)CO[C@@H]1C[C@@H]2O [paclitaxel]
[1]
  inhibition of stimulation of aromatase activity by PGE2 (in words): antagonise; also recorded: inhibited
  inhibition of PGE2 (10 μM) stimulated aromatase activity, significance: significant
[2]; Homo sapiens, Fibroblast, compound at 0.1 μM, read-out: inhibition of TNFα stimulation of aromatase activity, dose-response study
  inhibition at 0.1 µM: 90%
[2]
  inhibition of TNFα (20 ng/ml) stimulated aromatase activity, significance: significant
  inhibition of TNFα-stimulated aromatase activity: 91%
  inhibition of TNFα-stimulated aromatase activity (in words): significantly inhibited
[2]; listed as Paclitaxel
  inhibition of TNFα-stimulated aromatase activity (in words): inhibited
[9]
  effect on TNFα receptors: rapidly down-regulate
[3]
  inhibition of basal aromatase activity: 88%
  inhibition of basal aromatase activity (in words): inhibited
[4]
  inhibition of stimulation of aromatase activity by IL-6 plus its soluble receptor (in words): antagonise; also recorded: inhibited
  inhibition of IL-6 plus IL-6sR (50 ng+100 ng/ml) stimulated aromatase activity, significance: significant

## TNFα
[2]; in the presence of dexamethasone, reduction mammoplasty fibroblasts
  stimulation of aromatase activity: 375%
